Data as given in patent US11046694B2, “Compounds and methods for treating bacterial infections” (Entasis Therapeutics, Inc., priority 2018, dated 2021).
In brackets after ≈: the same amount, converted by molar mass. Counter-ions that a name gives are not always drawn.

Legend:
P. aeruginosa PBP1a = P. aeruginosa PBP1a (Pseudomonas aeruginosa, UniProt Q07806); format: biochemical; details: P. aeruginosa PBP1a 60 nM, BOCILLIN FL 30 nM, pH 7.0
P. aeruginosa PBP2 = biological target: T1, P. aeruginosa PBP2 (Pseudomonas aeruginosa, UniProt Q9X6V3); format: biochemical; details: P. aeruginosa PBP2 300 nM, BOCILLIN FL 30 nM, pH 6.2
T1 sequence (Q9X6V3 1-646): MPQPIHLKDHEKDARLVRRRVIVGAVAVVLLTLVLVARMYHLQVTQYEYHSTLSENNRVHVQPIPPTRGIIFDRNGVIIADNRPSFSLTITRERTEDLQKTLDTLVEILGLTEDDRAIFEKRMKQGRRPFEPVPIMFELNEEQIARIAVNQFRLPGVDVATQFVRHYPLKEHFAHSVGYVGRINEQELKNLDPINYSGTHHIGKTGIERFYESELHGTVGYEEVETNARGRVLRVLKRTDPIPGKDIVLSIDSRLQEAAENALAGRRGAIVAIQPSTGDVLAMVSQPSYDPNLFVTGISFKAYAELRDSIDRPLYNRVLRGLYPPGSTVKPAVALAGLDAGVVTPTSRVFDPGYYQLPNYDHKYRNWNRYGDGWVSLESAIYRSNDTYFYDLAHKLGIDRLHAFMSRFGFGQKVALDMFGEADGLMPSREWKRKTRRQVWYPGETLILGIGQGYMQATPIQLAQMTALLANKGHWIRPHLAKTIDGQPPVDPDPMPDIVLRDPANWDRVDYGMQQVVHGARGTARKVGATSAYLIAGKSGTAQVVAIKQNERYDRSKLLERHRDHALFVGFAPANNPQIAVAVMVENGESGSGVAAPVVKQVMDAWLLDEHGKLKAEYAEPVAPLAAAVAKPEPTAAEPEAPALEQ

P. aeruginosa PBP3 = P. aeruginosa PBP3 (Pseudomonas aeruginosa, UniProt G3XD46); format: biochemical; details: P. aeruginosa PBP3 60 nM, BOCILLIN FL 30 nM, pH 7.0
P. aeruginosa WT (PAO1) = assay: MIC, CLSI broth microdilution, P. aeruginosa; format: cell-based; details: Pseudomonas aeruginosa, PAO1; CLSI broth microdilution; read-out: P. aeruginosa WT (PAO1) MIC
E. coli (ATCC25922) = assay: MIC against E. coli; details: Escherichia coli, ATCC25922, read-out: E. coli MIC (ATCC25922) (mg/L)
A. baumannii (ARC3495) = assay: MIC against A. baumannii; details: Acinetobacter baumannii, read-out: A. baumannii MIC (ARC3495) (mg/L)
[1] = tested on: K. pneumoniae (ATCC700603); assay: MIC against K. pneumoniae; details: Klebsiella pneumoniae, ATCC700603, read-out: K. pneumoniae MIC (ATCC700603)

Sequence of P. aeruginosa PBP1a (Q07806 whole entry): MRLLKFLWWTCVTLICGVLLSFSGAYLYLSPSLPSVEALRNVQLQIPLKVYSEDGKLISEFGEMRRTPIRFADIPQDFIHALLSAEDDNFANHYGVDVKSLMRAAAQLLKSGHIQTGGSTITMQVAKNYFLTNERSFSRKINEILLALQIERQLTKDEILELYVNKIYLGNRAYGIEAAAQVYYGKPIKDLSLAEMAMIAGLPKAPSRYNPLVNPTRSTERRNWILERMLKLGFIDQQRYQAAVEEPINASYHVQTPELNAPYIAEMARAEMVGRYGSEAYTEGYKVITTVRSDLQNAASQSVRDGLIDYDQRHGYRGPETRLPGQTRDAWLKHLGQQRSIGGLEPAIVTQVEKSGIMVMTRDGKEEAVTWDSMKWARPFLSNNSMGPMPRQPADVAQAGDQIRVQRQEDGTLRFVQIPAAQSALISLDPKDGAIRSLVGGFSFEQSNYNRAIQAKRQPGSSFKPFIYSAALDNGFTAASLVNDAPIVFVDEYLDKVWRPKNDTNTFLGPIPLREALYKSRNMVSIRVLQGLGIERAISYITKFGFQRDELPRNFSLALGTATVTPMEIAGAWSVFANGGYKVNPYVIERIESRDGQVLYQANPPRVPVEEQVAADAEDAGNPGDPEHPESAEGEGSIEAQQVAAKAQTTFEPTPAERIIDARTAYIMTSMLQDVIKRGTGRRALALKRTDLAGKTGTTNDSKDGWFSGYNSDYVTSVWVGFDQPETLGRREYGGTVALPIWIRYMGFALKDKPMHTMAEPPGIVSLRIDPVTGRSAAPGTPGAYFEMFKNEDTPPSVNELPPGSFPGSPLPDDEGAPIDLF
Sequence of P. aeruginosa PBP3 (G3XD46 whole entry): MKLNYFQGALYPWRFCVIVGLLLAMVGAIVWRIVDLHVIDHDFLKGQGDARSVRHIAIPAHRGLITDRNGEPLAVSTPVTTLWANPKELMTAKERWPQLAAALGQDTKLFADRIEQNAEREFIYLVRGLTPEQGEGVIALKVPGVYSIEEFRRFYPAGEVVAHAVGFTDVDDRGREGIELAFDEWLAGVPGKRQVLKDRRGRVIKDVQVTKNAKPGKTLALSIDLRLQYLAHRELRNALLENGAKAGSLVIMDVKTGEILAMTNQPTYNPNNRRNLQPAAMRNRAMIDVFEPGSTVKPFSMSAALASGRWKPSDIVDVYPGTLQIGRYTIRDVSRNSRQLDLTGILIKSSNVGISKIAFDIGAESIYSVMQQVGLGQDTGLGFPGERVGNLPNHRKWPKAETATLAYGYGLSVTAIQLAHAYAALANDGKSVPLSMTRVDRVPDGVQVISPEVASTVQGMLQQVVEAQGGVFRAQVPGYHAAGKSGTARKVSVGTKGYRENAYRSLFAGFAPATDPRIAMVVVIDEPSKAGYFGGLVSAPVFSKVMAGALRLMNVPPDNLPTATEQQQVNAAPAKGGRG

SMILES	PBP1a acylation rate, k(on) (M^−1 · s^−1) (P. aeruginosa PBP1a)	PBP2 acylation rate, k(on) (M^−1 · s^−1) (P. aeruginosa PBP2)	PBP3 acylation rate, k(on) (M^−1 · s^−1) (P. aeruginosa PBP3)	MIC (P. aeruginosa WT (PAO1))	MIC (E. coli (ATCC25922))	MIC (A. baumannii (ARC3495))	MIC [1]
CCN/C(=N\O)[C@@H]1c2c(cnn2C)[C@@H]2CN1C(=O)N2OS(=O)(=O)O (racemic) [Example 5]	** (** represents a k(on) of 100 to 10,000 M^−1 · s^−1)	* (* represents a k(on) < 100 M^−1 · s^−1)	** (** represents a k(on) of 100 to 10,000 M^−1 · s^−1)	> 16 µg/mL	< 8 mg/L	> 16 mg/L	> 16 µg/mL
CN/C(=N\OCCCCN)[C@@H]1c2c(cnn2C)[C@@H]2CN1C(=O)N2OS(=O)(=O)O (racemic) [Example 6]	* (* represents a k(on) < 100 M^−1 · s^−1)	* (* represents a k(on) < 100 M^−1 · s^−1)	** (** represents a k(on) of 100 to 10,000 M^−1 · s^−1)	8 to 16 µg/mL (≈ 19.2 to 38.3 µM)	8 to 16 mg/L (≈ 19.2 to 38.3 µM)	> 16 mg/L	> 16 µg/mL
CN/C(=N\OCCN)[C@@H]1c2c(cnn2C)[C@@H]2CN1C(=O)N2OS(=O)(=O)O (racemic) [Example 7]	* (* represents a k(on) < 100 M^−1 · s^−1)	* (* represents a k(on) < 100 M^−1 · s^−1)	** (** represents a k(on) of 100 to 10,000 M^−1 · s^−1)	8 to 16 µg/mL (≈ 20.5 to 41.1 µM)	8 to 16 mg/L (≈ 20.5 to 41.1 µM)	> 16 mg/L	8 to 16 µg/mL (≈ 20.5 to 41.1 µM)
Cn1ncc2c1[C@@H](/C(=N/O)NCCCCN)N1C[C@@H]2N(OS(=O)(=O)O)C1=O (racemic) [Example 8]	* (* represents a k(on) < 100 M^−1 · s^−1)	* (* represents a k(on) < 100 M^−1 · s^−1)	* (* represents a k(on) < 100 M^−1 · s^−1)	> 16 µg/mL	< 8 mg/L	> 16 mg/L	> 16 µg/mL
CN(O)/C(=N\O)[C@@H]1c2c(cnn2C)[C@@H]2CN1C(=O)N2OS(=O)(=O)O (racemic) [Example 9]	** (** represents a k(on) of 100 to 10,000 M^−1 · s^−1)	* (* represents a k(on) < 100 M^−1 · s^−1)	** (** represents a k(on) of 100 to 10,000 M^−1 · s^−1)	< 8 µg/mL	< 8 mg/L	8 to 16 mg/L (≈ 22.1 to 44.2 µM)	8 to 16 µg/mL (≈ 22.1 to 44.2 µM)
CN/C(=N\OC(=O)NCc1cn(C)[n+](C)c1)[C@@H]1c2c(cnn2C)[C@@H]2CN1C(=O)N2OS(=O)(=O)O [Example 54, 1,2-dimethyl-4-((Z)-3-((4R,8S)-1-methyl-6-oxo-5-(sulfooxy)-4,5,6,8-tetrahydro-1H-4,7-methanopyrazolo[3,4-e][1,3]diazepin-8-yl)-6-oxo-5-oxa-2,4,7-triazaoct-3-en-8-yl)-1H-pyrazol-2-ium]	* (* represents a k(on) < 100 M^−1 · s^−1)		*** (*** represents a k(on) > 10,000 M^−1 · s^−1)	8 to 16 µg/mL	< 8 mg/L	> 16 mg/L	> 16 µg/mL
CN/C(=N\OCC(N)=O)[C@@H]1c2c(cnn2C)[C@@H]2CN1C(=O)N2OS(=O)(=O)O [Example 57, pyridium (4R,8S)-8-((Z)—N′-(2-amino-2-oxoethoxy)-N-methylcarbamimidoyl)-1-methyl-6-oxo-4,8-dihydro-1H-4,7-methanopyrazolo[3,4-e][1,3]diazepin-5(6H)-yl hydrogen sulfate]	** (** represents a k(on) of 100 to 10,000 M^−1 · s^−1)		*** (*** represents a k(on) > 10,000 M^−1 · s^−1)	< 8 µg/mL	8 to 16 mg/L	8 to 16 mg/L	8 to 16 µg/mL
CN/C(=N\OCC(=O)O)[C@@H]1c2c(cnn2C)[C@@H]2CN1C(=O)N2OS(=O)(=O)O [Example 62, 2-((((Z)-((4R,8S)-1-methyl-6-oxo-5-(sulfooxy)-4,5,6,8-tetrahydro-1H-4,7-methanopyrazolo[3,4-e][1,3]diazepin-8-yl)(methylamino)methylene)amino)oxy)acetic acid]	** (** represents a k(on) of 100 to 10,000 M^−1 · s^−1)		*** (*** represents a k(on) > 10,000 M^−1 · s^−1)	< 8 µg/mL	8 to 16 mg/L (≈ 19.8 to 39.6 µM)	> 16 mg/L	8 to 16 µg/mL (≈ 19.8 to 39.6 µM)
CN/C(=N\OC(C)(C)C(=O)O)[C@@H]1c2c(cnn2C)[C@@H]2CN1C(=O)N2OS(=O)(=O)O [Example 63]	** (** represents a k(on) of 100 to 10,000 M^−1 · s^−1)		*** (*** represents a k(on) > 10,000 M^−1 · s^−1)	8 to 16 µg/mL (≈ 18.5 to 37 µM)	< 8 mg/L	> 16 mg/L	> 16 µg/mL
CN1C(=O)CON=C1[C@@H]1c2c(cnn2C)[C@@H]2CN1C(=O)N2OS(=O)(=O)O [Example 64, ((4R,8S)-1-methyl-8-(4-methyl-5-oxo-5,6-dihydro-4H-1,2,4-oxadiazin-3-yl)-6-oxo-4,8-dihydro-1H-4,7-methanopyrazolo[3,4-e][1,3]diazepin-5(6H)-yl) hydrogen sulfate]	** (** represents a k(on) of 100 to 10,000 M^−1 · s^−1)		** (** represents a k(on) of 100 to 10,000 M^−1 · s^−1)	> 16 µg/mL	< 8 mg/L	> 16 mg/L	> 16 µg/mL
CN1C(=O)C(C)(C)ON=C1[C@@H]1c2c(cnn2C)[C@@H]2CN1C(=O)N2OS(=O)(=O)O [Example 65]	** (** represents a k(on) of 100 to 10,000 M^−1 · s^−1)		** (** represents a k(on) of 100 to 10,000 M^−1 · s^−1)	> 16 µg/mL	< 8 mg/L	> 16 mg/L	> 16 µg/mL
CN/C(=N\OC(C)=O)[C@@H]1c2c(cnn2C)[C@@H]2CN1C(=O)N2OS(=O)(=O)O [Example 69, pyridium (4R,8S)-8-((Z)—N′-acetoxy-N-methylcarbamimidoyl)-1-methyl-6-oxo-4,8-dihydro-1H-4,7-methanopyrazolo[3,4-e][1,3]diazepin-5(6H)-hydrogen sulfate]	** (** represents a k(on) of 100 to 10,000 M^−1 · s^−1)		*** (*** represents a k(on) > 10,000 M^−1 · s^−1)	> 16 µg/mL	8 to 16 mg/L	> 16 mg/L	8 to 16 µg/mL
CN/C(=N\OCC(=O)NOS(=O)(=O)O)[C@@H]1c2c(cnn2C)[C@@H]2CN1C(=O)N2OS(=O)(=O)O [Example 73, pyridium ((2-((((Z)-((4R,8S)-1-methyl-6-oxo-5-(sulfooxy)-4,5,6,8-tetrahydro-1H-4,7-methanopyrazolo[3,4-e][1,3]diazepin-8-yl)(methylamino)methylene)amino)oxy)acetamido)oxy)sulfonic acid]	** (** represents a k(on) of 100 to 10,000 M^−1 · s^−1)		*** (*** represents a k(on) > 10,000 M^−1 · s^−1)	8 to 16 µg/mL (≈ 16 to 32 µM)	8 to 16 mg/L (≈ 16 to 32 µM)	> 16 mg/L	8 to 16 µg/mL (≈ 16 to 32 µM)
